Read-outs that look alike come from different tables or passages of the source.
Experiments:
HOP-62 = test: NCI in-vitro testing, HOP-62 (Non-Small Cell Lung Cancer)
K-562 = test: NCI in-vitro testing, K-562 (Leukemia)
SK-MEL-5 = test: NCI in-vitro testing, SK-MEL-5 (Melanoma)
HCT-116 = test: NCI in-vitro testing, HCT-116 (Colon Cancer)
HS 578T = test: NCI in-vitro testing, HS 578T (Breast Cancer)
BT-549 = test: NCI in-vitro testing, BT-549 (Breast Cancer)
SR = test: NCI in-vitro testing, SR (Leukemia); assay type: cell-based; conditions: for GI50: Homo sapiens
HCC-2998 = test: NCI in-vitro testing, HCC-2998 (Colon Cancer)
H2087 = test: Cell viability, H2087 lung cancer cells; assay type: cell-based, human; conditions: Homo sapiens, NCI-H2087; H2087, Lung; read-out: IC50 (−LogM) (converted)
CAKI-1 = test: NCI in-vitro testing, CAKI-1 (Renal Cancer); conditions: for Percent Growth: CAK1-1
MOLT-4 = test: NCI in-vitro testing, MOLT-4 (Leukemia)
NCI-H226 = test: NCI in-vitro testing, NCI-H226 (Non-Small Cell Lung Cancer)
SW-620 = test: NCI in-vitro testing, SW-620 (Colon Cancer)
NCI-H23 = test: NCI in-vitro testing, NCI-H23 (Non-Small Cell Lung Cancer)
MDA-MB-435 = test: NCI in-vitro testing, MDA-MB-435 (Breast Cancer)

OCc1cn(Cc2ccc(Cl)cc2)c2ccccc12 [Oncrasin K060, 1H-Indole-3-methanol, 1-[(4-chlorophenyl)methyl]-]
TGI (HOP-62; HOP-62): 1.93E−5 Molar
Percent Growth (HOP-62; HOP-62, Log10 Concentration −4.0 Molar): −37%
Percent Growth (HOP-62; HOP-62, Log10 Concentration −5.0 Molar): 15%
Percent Growth (HOP-62; HOP-62, Log10 Concentration −6.0 Molar): 36%
Percent Growth (HOP-62; HOP-62, Log10 Concentration −7.0 Molar): 07%
Percent Growth (HOP-62; HOP-62, Log10 Concentration −8.0 Molar): 91%
GI50 (HOP-62; Homo sapiens, HOP-62): 0.3 µM
CC50 (HOP-62; Homo sapiens, HOP-62, read-out: LC50): > 100 µM
GI50 (HOP-62; Homo sapiens, HOP-62, read-out: Log10 GI50 (converted)): 0.363 µM
GI50 (K-562; Homo sapiens, K562): 19.2 µM
CC50 (K-562; Homo sapiens, K562, read-out: LC50): 6.46 µM
GI50 (K-562; Homo sapiens, K562, read-out: Log10 GI50 (converted)): 1.91 µM
TGI (K-562; K-562): 1.26E−6 Molar
Percent Growth (K-562; K-562, Log10 Concentration −4.0 Molar): −71%
Percent Growth (K-562; K-562, Log10 Concentration −5.0 Molar): 8%
Percent Growth (K-562; K-562, Log10 Concentration −6.0 Molar): 67%
Percent Growth (K-562; K-562, Log10 Concentration −7.0 Molar): 100%
Percent Growth (K-562; K-562, Log10 Concentration −8.0 Molar): 114%
GI50 (SK-MEL-5; Homo sapiens, SK-MEL-5): 4.97 µM
CC50 (SK-MEL-5; Homo sapiens, SK-MEL-5, read-out: LC50): 45.5 µM
GI50 (SK-MEL-5; Homo sapiens, SK-MEL-5, read-out: Log10 GI50 (converted)): 5.01 µM
TGI (SK-MEL-5; SK-MEL-5): 1.95E−5 Molar
Percent Growth (SK-MEL-5; SK-MEL-5, Log10 Concentration −4.0 Molar): −97%
Percent Growth (SK-MEL-5; SK-MEL-5, Log10 Concentration −5.0 Molar): 40%
Percent Growth (SK-MEL-5; SK-MEL-5, Log10 Concentration −6.0 Molar): 74%
Percent Growth (SK-MEL-5; SK-MEL-5, Log10 Concentration −7.0 Molar): 92%
Percent Growth (SK-MEL-5; SK-MEL-5, Log10 Concentration −8.0 Molar): 95%
TGI (HCT-116; HCT-116): 1.06E−5 Molar
Percent Growth (HCT-116; HCT-116, Log10 Concentration −4.0 Molar): −64%
Percent Growth (HCT-116; HCT-116, Log10 Concentration −5.0 Molar): 2%
Percent Growth (HCT-116; HCT-116, Log10 Concentration −6.0 Molar): 10%
Percent Growth (HCT-116; HCT-116, Log10 Concentration −7.0 Molar): 30%
Percent Growth (HCT-116; HCT-116, Log10 Concentration −8.0 Molar): 68%
GI50 (HCT-116; Homo sapiens, HCT-116): 0.0204 µM
CC50 (HCT-116; Homo sapiens, HCT-116, read-out: LC50): 6.06 µM
GI50 (HCT-116; Homo sapiens, HCT-116, read-out: Log10 GI50 (converted)): 0.0295 µM
TGI (HS 578T): 2.75E−5 Molar
GI50 (HS 578T; Homo sapiens, Hs-578T): 46.8 µM
CC50 (HS 578T; Homo sapiens, Hs-578T, read-out: LC50): > 100 µM
GI50 (HS 578T; Homo sapiens, Hs-578T, read-out: Log10 GI50 (converted)): 4.68 µM
TGI (BT-549; BT-549): 1.73E−5 Molar
Percent Growth (BT-549; BT-549, Log10 Concentration −4.0 Molar): −85%
Percent Growth (BT-549; BT-549, Log10 Concentration −5.0 Molar): 26%
Percent Growth (BT-549; BT-549, Log10 Concentration −6.0 Molar): 97%
Percent Growth (BT-549; BT-549, Log10 Concentration −7.0 Molar): 118%
Percent Growth (BT-549; BT-549, Log10 Concentration −8.0 Molar): 110%
GI50 (BT-549; Homo sapiens, BT-549): 4.62 µM
CC50 (BT-549; Homo sapiens, BT-549, read-out: LC50): 4.88 µM
GI50 (BT-549; Homo sapiens, BT-549, read-out: Log10 GI50 (converted)): 4.57 µM
TGI (SR): 1.26E−8 Molar
GI50 (SR; Leukemia, NCI Mean Graphs, read-out: Log10 GI50 (converted)): < 0.01 µM
GI50 (SR; read-out: GI50): < 1 µM
Percent Growth (SR; Log10 Concentration −4.0 Molar): −71%
Percent Growth (SR; Log10 Concentration −5.0 Molar): −18%
Percent Growth (SR; Log10 Concentration −6.0 Molar): −71%
Percent Growth (SR; Log10 Concentration −7.0 Molar): −26%
Percent Growth (SR; Log10 Concentration −8.0 Molar): 43%
TGI (HCC-2998; HCC-2998): 2.04E−5 Molar
Percent Growth (HCC-2998; HCC-2998, Log10 Concentration −4.0 Molar): −97%
Percent Growth (HCC-2998; HCC-2998, Log10 Concentration −5.0 Molar): 43%
Percent Growth (HCC-2998; HCC-2998, Log10 Concentration −6.0 Molar): 62%
Percent Growth (HCC-2998; HCC-2998, Log10 Concentration −7.0 Molar): 86%
Percent Growth (HCC-2998; HCC-2998, Log10 Concentration −8.0 Molar): 95%
GI50 (HCC-2998; Homo sapiens, HCC 2998): 4.33 µM
CC50 (HCC-2998; Homo sapiens, HCC 2998, read-out: LC50): 45.2 µM
GI50 (HCC-2998; Homo sapiens, HCC 2998, read-out: Log10 GI50 (converted)): 4.37 µM
IC50 (H2087): 25.1 µM
Percent Growth (CAKI-1; Log10 Concentration −4.0 Molar): 1%
Percent Growth (CAKI-1; Log10 Concentration −5.0 Molar): −47%
Percent Growth (CAKI-1; Log10 Concentration −6.0 Molar): −21%
Percent Growth (CAKI-1; Log10 Concentration −7.0 Molar): −3%
Percent Growth (CAKI-1; Log10 Concentration −8.0 Molar): 1%
GI50 (CAKI-1; Homo sapiens, CAKI-1): < 0.01 µM
CC50 (CAKI-1; Homo sapiens, CAKI-1, read-out: LC50): > 100 µM
GI50 (CAKI-1; Homo sapiens, CAKI-1, read-out: Log10 GI50 (converted)): < 0.01 µM
GI50 (MOLT-4; Homo sapiens, MOLT-4): 17.7 µM
CC50 (MOLT-4; Homo sapiens, MOLT-4, read-out: LC50): 82.8 µM
GI50 (MOLT-4; Homo sapiens, MOLT-4, read-out: Log10 GI50 (converted)): 17.8 µM
TGI (MOLT-4; MOLT-4): 3.82E−5 Molar
Percent Growth (MOLT-4; MOLT-4, Log10 Concentration −4.0 Molar): −62%
Percent Growth (MOLT-4; MOLT-4, Log10 Concentration −5.0 Molar): 87%
Percent Growth (MOLT-4; MOLT-4, Log10 Concentration −6.0 Molar): 109%
Percent Growth (MOLT-4; MOLT-4, Log10 Concentration −7.0 Molar): 102%
Percent Growth (MOLT-4; MOLT-4, Log10 Concentration −8.0 Molar): 114%
GI50 (NCI-H226; Homo sapiens, NCI-H226): < 0.01 µM
CC50 (NCI-H226; Homo sapiens, NCI-H226, read-out: LC50): 0.501 µM
GI50 (NCI-H226; Homo sapiens, NCI-H226, read-out: Log10 GI50 (converted)): < 0.01 µM
TGI (NCI-H226; NCI-H226): 4.48E−8 Molar
Percent Growth (NCI-H226; NCI-H226, Log10 Concentration −4.0 Molar): −65%
Percent Growth (NCI-H226; NCI-H226, Log10 Concentration −5.0 Molar): −68%
Percent Growth (NCI-H226; NCI-H226, Log10 Concentration −6.0 Molar): −82%
Percent Growth (NCI-H226; NCI-H226, Log10 Concentration −7.0 Molar): −22%
Percent Growth (NCI-H226; NCI-H226, Log10 Concentration −8.0 Molar): 40%
GI50 (SW-620; Homo sapiens, SW-620): 0.571 µM
CC50 (SW-620; Homo sapiens, SW-620, read-out: LC50): > 100 µM
GI50 (SW-620; Homo sapiens, SW-620, read-out: Log10 GI50 (converted)): 0.575 µM
TGI (SW-620; SW-620): 1.80E−5 Molar
Percent Growth (SW-620; SW-620, Log10 Concentration −4.0 Molar): −46%
Percent Growth (SW-620; SW-620, Log10 Concentration −5.0 Molar): 16%
Percent Growth (SW-620; SW-620, Log10 Concentration −6.0 Molar): 39%
Percent Growth (SW-620; SW-620, Log10 Concentration −7.0 Molar): 83%
Percent Growth (SW-620; SW-620, Log10 Concentration −8.0 Molar): 94%
GI50 (NCI-H23; Homo sapiens, NCI-H23): 2.9 µM
CC50 (NCI-H23; Homo sapiens, NCI-H23, read-out: LC50): 71.1 µM
GI50 (NCI-H23; Homo sapiens, NCI-H23, read-out: Log10 GI50 (converted)): 2.88 µM
TGI (NCI-H23; NCI-H23): 2.10E−5 Molar
Percent Growth (NCI-H23; NCI-H23, Log10 Concentration −4.0 Molar): −54%
Percent Growth (NCI-H23; NCI-H23, Log10 Concentration −5.0 Molar): 31%
Percent Growth (NCI-H23; NCI-H23, Log10 Concentration −6.0 Molar): 67%
Percent Growth (NCI-H23; NCI-H23, Log10 Concentration −7.0 Molar): 82%
Percent Growth (NCI-H23; NCI-H23, Log10 Concentration −8.0 Molar): 94%
GI50 (MDA-MB-435; Homo sapiens, MDA-MB-435): 19.3 µM
CC50 (MDA-MB-435; Homo sapiens, MDA-MB-435, read-out: LC50): > 100 µM
GI50 (MDA-MB-435; Homo sapiens, MDA-MB-435, read-out: Log10 GI50 (converted)): 19.1 µM
TGI (MDA-MB-435; MDA-MB-435): 5.47E−5 Molar
Percent Growth (MDA-MB-435; MDA-MB-435, Log10 Concentration −4.0 Molar): −29%
Percent Growth (MDA-MB-435; MDA-MB-435, Log10 Concentration −5.0 Molar): 81%
Percent Growth (MDA-MB-435; MDA-MB-435, Log10 Concentration −6.0 Molar): 96%
Percent Growth (MDA-MB-435; MDA-MB-435, Log10 Concentration −7.0 Molar): 100%
Percent Growth (MDA-MB-435; MDA-MB-435, Log10 Concentration −8.0 Molar): 102%

Reference: US8883841B2, “Oncogenic ras-specific cytotoxic compound and methods of use thereof” (The Board of Regents of the University of Texas System, priority 2005, dated 2014)
